Values after ≈ are worked out from the molar mass of the structure shown. Like-named read-outs stand apart in the source and are kept apart here.
Assays:
Type in all cases: cell-based
[1] = test system: Staphylococcus epidermidis CPHL A2; experiment: MIC test, agar dilution with Steers multiwell inoculator; settings: CPHLA2, TSA dishes, 24 h at 35°C, read-out: Minimum Inhibiting Concentration
Procedure, shortened: (§1)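 Compounds are dissolved in DMSO plus 1N NaOH at 2560 µg/ml, serially halved and mixed into molten TSA, giving 64 µg/ml per dish at the top. Dried plates are inoculated with 1-2.10⁷ cfu/ml bacteria and read after 24 h at 35°C.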

[2] = test system: Staphylococcus aureus MPR 5; experiment: as above; settings: MPR5, TSA dishes, 24 h at 35°C, read-out: Minimum Inhibiting Concentration
Procedure, shortened: as §1

[3] = test system: Escherichia coli CNUR 1; experiment: as above; settings: CNUR1, TSA dishes, 24 h at 35°C, read-out: Minimum Inhibiting Concentration
Procedure, shortened: as §1

[4] = test system: Escherichia coli CNUR 8; experiment: as above; settings: CNUR8, TSA dishes, 24 h at 35°C, read-out: Minimum Inhibiting Concentration
Procedure, shortened: as §1

[5] = test system: Enterobacter cloacae OMNF 1153; experiment: as above; settings: OMNF1153, TSA dishes, 24 h at 35°C, read-out: Minimum Inhibiting Concentration
Procedure, shortened: as §1

[6] = test system: Providencia stuardii CNUR 5; experiment: as above; settings: CNUR5, TSA dishes, 24 h at 35°C, read-out: Minimum Inhibiting Concentration
Procedure, shortened: as §1

[7] = test system: Streptococcus facealis LEP Br.; experiment: as above; settings: TSA dishes, 24 h at 35°C, read-out: Minimum Inhibiting Concentration
Procedure, shortened: as §1

[8] = test system: Escherichia coli 120; experiment: as above; settings: TSA dishes, 24 h at 35°C, read-out: Minimum Inhibiting Concentration
Procedure, shortened: as §1

[9] = test system: Escherichia coli ISF 432; experiment: as above; settings: ISF432, TSA dishes, 24 h at 35°C, read-out: Minimum Inhibiting Concentration
Procedure, shortened: as §1

[10] = test system: Pseudomonas aeruginosa CNUR 4; experiment: as above; settings: CNUR4, TSA dishes, 24 h at 35°C, read-out: Minimum Inhibiting Concentration
Procedure, shortened: as §1

[11] = test system: Enterobacter cloacae OMNF 1174; experiment: as above; settings: OMNF1174, TSA dishes, 24 h at 35°C, read-out: Minimum Inhibiting Concentration
Procedure, shortened: as §1

[12] = test system: Acinebacter calcoloaceticus OSMPV 1130; experiment: as above; settings: TSA dishes, 24 h at 35°C, read-out: Minimum Inhibiting Concentration
Procedure, shortened: as §1

[13] = test system: Klebsiella pneumoniae ATCC 10031; experiment: as above; settings: ATCC10031, TSA dishes, 24 h at 35°C, read-out: Minimum Inhibiting Concentration
Procedure, shortened: as §1

[14] = test system: Staphylococcus epidermidis HCF Berset C.; experiment: as above; settings: TSA dishes, 24 h at 35°C, read-out: Minimum Inhibiting Concentration
Procedure, shortened: as §1

[15] = test system: Escherichia coli ATCC 8739; experiment: as above; settings: ATCC8739, TSA dishes, 24 h at 35°C, read-out: Minimum Inhibiting Concentration
Procedure, shortened: as §1

[16] = test system: Shighella enteritidis; experiment: as above; settings: TSA dishes, 24 h at 35°C, read-out: Minimum Inhibiting Concentration
Procedure, shortened: as §1

[17] = test system: Staphylococcus aureus ATCC 6538; experiment: as above; settings: ATCC6538, TSA dishes, 24 h at 35°C, read-out: Minimum Inhibiting Concentration
Procedure, shortened: as §1

[18] = test system: Pseudomonas aeruginosa CNUR 2; experiment: as above; settings: CNUR2, TSA dishes, 24 h at 35°C, read-out: Minimum Inhibiting Concentration
Procedure, shortened: as §1

[19] = test system: Proteus vulgaris CNUR 6; experiment: as above; settings: CNUR6, TSA dishes, 24 h at 35°C, read-out: Minimum Inhibiting Concentration
Procedure, shortened: as §1

[20] = test system: Pseudomonas aeruginosa ATCC 9027; experiment: as above; settings: ATCC9027, TSA dishes, 24 h at 35°C, read-out: Minimum Inhibiting Concentration
Procedure, shortened: as §1

[21] = test system: Gram +; experiment: MIC test, average over the 5 gram-positive test germs; settings: 24 h
Procedure, shortened: as §1

[22] = test system: Gram -; experiment: MIC test, average over the 15 gram-negative test germs; settings: 24 h
Procedure, shortened: as §1

CN1CCN(c2c(F)cc3c(=O)c(C(=O)O)cn4c3c2SCC4)CC1 [RUFLOXACIN, reference compound]
MIC [1]: 1 mg/L (≈ 2.75 µM) | MIC [2]: 1 mg/L (≈ 2.75 µM) | MIC [3]: 0.5 mg/L (≈ 1.38 µM) | MIC [4]: 0.5 mg/L (≈ 1.38 µM) | MIC [5]: 1 mg/L (≈ 2.75 µM) | MIC [6]: 2 mg/L (≈ 5.5 µM) | MIC [7]: 8 mg/L (≈ 22 µM) | MIC [8]: 0.25 mg/L (≈ 0.688 µM) | MIC [9]: 0.06 mg/L (≈ 0.165 µM) | MIC [10]: 64 mg/L (≈ 176 µM) | MIC [11]: 0.5 mg/L (≈ 1.38 µM) | MIC [12]: 2 mg/L (≈ 5.5 µM) | MIC [13]: 0.12 mg/L (≈ 0.33 µM) | MIC [14]: 2 mg/L (≈ 5.5 µM) | MIC [15]: 0.5 mg/L (≈ 1.38 µM) | MIC [16]: 0.5 mg/L (≈ 1.38 µM) | MIC [17]: 0.5 mg/L (≈ 1.38 µM) | MIC [18]: 32 mg/L (≈ 88.1 µM) | MIC [19]: 16 mg/L (≈ 44 µM) | MIC [20]: 8 mg/L (≈ 22 µM) | MIC ([21]; geometrical average of the MIC over the 5 Gram + strains, read-out: Geometrical Average): 1.51 mg/L | MIC ([21]; read-out: Log (converted)): 1.52 mg/L (≈ 4.17 µM) | MIC ([22]; geometrical average of the MIC over the 15 Gram - strains, read-out: Geometrical Average): 1.31 mg/L (≈ 3.61 µM) | MIC ([22]; mean log of the MIC over the 15 Gram - strains, read-out: Log (converted)): 1.31 mg/L (≈ 3.61 µM)

Reference: patent publication EP0531958A1, “6-Aminoquinolones, their synthesis and their use as antibacterial agents” (MEDIOLANUM FARMACEUTICI S.P.A., priority 1991, dated 1993)
